Test results from patent US9783527B2, “Indazole ureas and method of use” (AbbVie Inc., priority 2014, dated 2017).

How the values were obtained:
[1] = system: MIA-induced osteoarthritic pain in rats; experiment: Osteoarthritic (OA) pain induced by sodium monoiodoacetate (MIA), hind limb grip force; type: in vivo, rat; settings: male Sprague Dawley rats, grip force 20 days after MIA injection
Method: Osteoarthritic (OA) Pain Induced by Sodium Monoiodoacetate (MIA)
Pain behavior was assessed by measurement of hind limb grip force (GF) in adult osteoarthritic rats. Male Sprague Dawley rats, obtained from Charles River Laboratories, (Wilmington, Mass.), weighing 150-175 g, were injected in the unilateral knee join with a single intra-articular injection of sodium monoiodoacetate (MIA, 3 mg/rat). All rats were tested at 20 days following MIA injection. A behavioral measure of activity-induced pain was carried out. Measurements of the peak hind limb grip force were conducted by recording the maximum compressive force (CFmax), in grams of force, exerted on a hind limb strain gauge setup, in a commercially available grip force measurement system (Columbus Instruments, Columbus, Ohio).
During testing, each rat was gently restrained by grasping it around its rib cage and then allowed to grasp the wire mesh frame attached to the strain gauge. The experimenter then moved the animal in a rostral-to-caudal direction until the grip was broken. Each rat was sequentially tested twice at an approximately 2-3 minute interval to obtain a raw mean grip force (CFmax). This raw mean grip force data was in turn converted to a maximum hindlimb cumulative compressive force (CFmax), as the grams of force/kg of body weight, for each animal.
For evaluating the compound effects, the hind limb grip force was conducted 20 days following the intra-articular injection of MIA. A group of age-matched nave (not injected with MIA) animals was added as a comparator to the drug-dosed groups. The vehicle control response for each group of MIA-treated animals was defined as the 0% response (0% effect), whereas the nave control group was defined as the normal response and as 100% effect. The % effect for each dose group was expressed as % return of response to normalcy, compared to the nave group. A percent maximal possible effect (% MPE) of testing compound was calculated according to the formula: (Treatment CFmax−Vehicle CFmax)/Vehicle CFmax]×100). Higher % effect numbers indicate increased relief from the pain in the model, with 100% indicating a return to the level of response seen in normal (non-osteoarthritic) animals. All experiments evaluating drug effects in this model were conducted in a randomized blinded fashion.
(§1) The animals were housed in Association for Assessment and Accreditation of Laboratory Animal Care (AAALAC) approved facilities at AbbVie Inc. in a temperature-regulated environment under a controlled 12-hour light-dark cycle, with lights on at 6:00 a.m. Food and water were available ad libitum at all times except during testing. All testing was done following procedures outlined in protocols approved by AbbVie Inc.'s Institutional Animal Care and Use Committee.

[2] = system: spinal nerve ligation-induced neuropathic pain in rats; experiment: Rat spinal nerve ligation (SNL) model of neuropathic pain, von Frey paw withdrawal threshold; type: in vivo; settings: SNL dose 100 mg/kg; male Sprague Dawley rats, mechanical sensitivity (von Frey)
From the text: Rat Spinal Nerve Ligation (SNL) Model of Neuropathic Pain.
A model of spinal nerve ligation-induced (SNL model) neuropathic pain as originally described by Kim and Chung (Kim, S. H. and J. M. Chung, 1992, Pain 50, 355) was used to test a compound of the present application. The male Sprague Dawley rats (Charles River Laboratories, Wilmington, Mass.), weighing 150-175 g at the time of surgery, were placed under isoflurane anesthesia and a 1.5 cm incision was made dorsal to the lumbosacral plexus. The paraspinal muscles (left side) were separated from the spinous processes, the left L5 and L6 spinal nerves isolated, and tightly ligated with 5-0 silk suture distal to the dorsal root ganglion. Care was taken to avoid ligating the L4 spinal nerve. Following spinal nerve ligation, a minimum of 7 days of recovery and no more than 3 weeks was allowed prior to the behavioral testing (mechanical sensitivity). Only rats with threshold scores ≦4.5 g were considered allodynic and utilized in pharmacological experiments.
Mechanical sensitivity was measured using calibrated von Frey filaments (Stoelting, Wood Dale, Ill.). Paw withdrawal threshold (PWT) was determined by using the Dixon's up-down method (Dixon, W. J., 1980, Ann. Rev. Pharmacol. Toxicol., 20, 441). Rats were placed into inverted individual plastic containers (20×12.5×20 cm) on top of a suspended wire mesh with a 1 cm^2 grid to provide access to the ventral side of the hind paws, and acclimated to the test chambers for 20 minutes. The von Frey filaments were presented perpendicularly to the plantar surface of the selected hind paw, and then held in this position for approximately 8 seconds with enough force to cause a slight bend in the filament. Positive responses included an abrupt withdrawal of the hind paw from the stimulus, or flinching behavior immediately following removal of the stimulus. A 50% withdrawal threshold was determined using an up-down procedure (Dixon, 1980). A percent maximal possible effect (% MPE) of testing compound was calculated according to the formula: (Log [compound-treated threshold]−Log [vehicle-treated threshold])/(Log [maximum threshold]−Log [vehicle-treated threshold])×100%, where the maximum threshold was equal to 15 g.
as §1, with “Inc.s'” for “Inc.'s”

human Nav1.7 = human Nav1.7 (Homo sapiens (Human), UniProt Q15858); experiment: FRET-based membrane potential assay, recombinant human sodium channel Nav1.7; type: cell-based; settings: HEK293 cells stably expressing recombinant human Nav1.7; depolarization with veratridine (EC80) + scorpion venom
human Nav1.7, sequence (Q15858 whole entry): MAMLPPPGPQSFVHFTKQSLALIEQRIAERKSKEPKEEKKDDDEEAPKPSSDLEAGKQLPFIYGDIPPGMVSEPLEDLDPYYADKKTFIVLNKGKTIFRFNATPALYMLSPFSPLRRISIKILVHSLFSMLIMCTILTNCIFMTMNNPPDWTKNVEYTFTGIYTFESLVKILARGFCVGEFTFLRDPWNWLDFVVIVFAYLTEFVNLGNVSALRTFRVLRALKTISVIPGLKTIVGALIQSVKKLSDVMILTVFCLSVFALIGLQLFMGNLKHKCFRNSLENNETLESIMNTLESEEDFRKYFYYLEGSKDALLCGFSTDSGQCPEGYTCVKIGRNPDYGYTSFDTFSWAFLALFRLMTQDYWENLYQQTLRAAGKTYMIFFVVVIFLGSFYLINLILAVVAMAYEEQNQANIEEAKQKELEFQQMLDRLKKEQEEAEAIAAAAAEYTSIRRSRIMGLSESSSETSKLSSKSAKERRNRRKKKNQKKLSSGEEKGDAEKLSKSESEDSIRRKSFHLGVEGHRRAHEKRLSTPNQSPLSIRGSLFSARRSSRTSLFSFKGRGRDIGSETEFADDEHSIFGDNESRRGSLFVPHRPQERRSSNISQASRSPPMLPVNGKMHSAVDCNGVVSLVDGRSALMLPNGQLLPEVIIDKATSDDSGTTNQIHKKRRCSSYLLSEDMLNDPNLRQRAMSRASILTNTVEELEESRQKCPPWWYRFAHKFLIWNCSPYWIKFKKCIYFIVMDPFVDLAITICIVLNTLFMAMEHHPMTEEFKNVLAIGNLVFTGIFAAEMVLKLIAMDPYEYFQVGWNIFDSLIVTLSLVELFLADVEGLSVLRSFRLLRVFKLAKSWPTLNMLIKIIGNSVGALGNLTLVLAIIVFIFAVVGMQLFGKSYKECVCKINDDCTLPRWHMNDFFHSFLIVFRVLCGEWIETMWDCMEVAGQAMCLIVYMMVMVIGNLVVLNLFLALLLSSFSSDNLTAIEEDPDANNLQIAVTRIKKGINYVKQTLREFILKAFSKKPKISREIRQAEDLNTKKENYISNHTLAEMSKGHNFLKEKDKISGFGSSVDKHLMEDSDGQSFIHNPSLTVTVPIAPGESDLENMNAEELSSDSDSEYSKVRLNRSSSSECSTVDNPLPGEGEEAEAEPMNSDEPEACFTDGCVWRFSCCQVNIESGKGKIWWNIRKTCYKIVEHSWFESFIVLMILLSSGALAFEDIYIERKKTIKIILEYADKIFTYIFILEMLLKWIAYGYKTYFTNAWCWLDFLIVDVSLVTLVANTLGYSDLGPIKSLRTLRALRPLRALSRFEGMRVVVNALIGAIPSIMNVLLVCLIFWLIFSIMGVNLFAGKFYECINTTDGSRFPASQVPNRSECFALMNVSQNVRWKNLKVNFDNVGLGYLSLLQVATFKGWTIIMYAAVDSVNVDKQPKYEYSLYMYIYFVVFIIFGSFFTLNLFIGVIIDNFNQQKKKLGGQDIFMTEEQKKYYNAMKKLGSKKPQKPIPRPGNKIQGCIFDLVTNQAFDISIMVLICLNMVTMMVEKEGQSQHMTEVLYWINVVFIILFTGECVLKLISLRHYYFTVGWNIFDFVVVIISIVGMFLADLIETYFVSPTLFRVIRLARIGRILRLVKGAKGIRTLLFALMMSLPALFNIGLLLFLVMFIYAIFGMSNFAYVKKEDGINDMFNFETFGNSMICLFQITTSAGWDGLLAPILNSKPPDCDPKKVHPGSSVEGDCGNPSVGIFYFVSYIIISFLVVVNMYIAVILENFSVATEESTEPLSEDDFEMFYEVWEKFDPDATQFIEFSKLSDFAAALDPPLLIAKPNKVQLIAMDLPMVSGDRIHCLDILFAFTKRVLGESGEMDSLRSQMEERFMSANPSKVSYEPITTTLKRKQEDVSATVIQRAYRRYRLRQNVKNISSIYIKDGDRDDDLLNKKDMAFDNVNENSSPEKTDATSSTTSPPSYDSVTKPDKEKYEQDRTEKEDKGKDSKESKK
Summary of the method: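 IC50 derived by four-parameter Hill fit of percent inhibition of depolarization, measured as peak F440-480/F565-625 ratio over baseline. Stable human Nav1.7 HEK293 cells, dye-loaded with CC2-DMPE and DiSBAC2(3)/VABSC-1 at room temperature, received compound 3 min ahead of veratridine (EC80) plus scorpion venom.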

human Nav1.8 = human Nav1.8 (Homo sapiens (Human), UniProt Q9Y5Y9); experiment: FRET-based membrane potential assay, recombinant human sodium channel Nav1.8; type: cell-based; settings: HEK293 cells stably expressing recombinant human Nav1.8; depolarization with veratridine (EC80) + scorpion venom
human Nav1.8, sequence (Q9Y5Y9 whole entry): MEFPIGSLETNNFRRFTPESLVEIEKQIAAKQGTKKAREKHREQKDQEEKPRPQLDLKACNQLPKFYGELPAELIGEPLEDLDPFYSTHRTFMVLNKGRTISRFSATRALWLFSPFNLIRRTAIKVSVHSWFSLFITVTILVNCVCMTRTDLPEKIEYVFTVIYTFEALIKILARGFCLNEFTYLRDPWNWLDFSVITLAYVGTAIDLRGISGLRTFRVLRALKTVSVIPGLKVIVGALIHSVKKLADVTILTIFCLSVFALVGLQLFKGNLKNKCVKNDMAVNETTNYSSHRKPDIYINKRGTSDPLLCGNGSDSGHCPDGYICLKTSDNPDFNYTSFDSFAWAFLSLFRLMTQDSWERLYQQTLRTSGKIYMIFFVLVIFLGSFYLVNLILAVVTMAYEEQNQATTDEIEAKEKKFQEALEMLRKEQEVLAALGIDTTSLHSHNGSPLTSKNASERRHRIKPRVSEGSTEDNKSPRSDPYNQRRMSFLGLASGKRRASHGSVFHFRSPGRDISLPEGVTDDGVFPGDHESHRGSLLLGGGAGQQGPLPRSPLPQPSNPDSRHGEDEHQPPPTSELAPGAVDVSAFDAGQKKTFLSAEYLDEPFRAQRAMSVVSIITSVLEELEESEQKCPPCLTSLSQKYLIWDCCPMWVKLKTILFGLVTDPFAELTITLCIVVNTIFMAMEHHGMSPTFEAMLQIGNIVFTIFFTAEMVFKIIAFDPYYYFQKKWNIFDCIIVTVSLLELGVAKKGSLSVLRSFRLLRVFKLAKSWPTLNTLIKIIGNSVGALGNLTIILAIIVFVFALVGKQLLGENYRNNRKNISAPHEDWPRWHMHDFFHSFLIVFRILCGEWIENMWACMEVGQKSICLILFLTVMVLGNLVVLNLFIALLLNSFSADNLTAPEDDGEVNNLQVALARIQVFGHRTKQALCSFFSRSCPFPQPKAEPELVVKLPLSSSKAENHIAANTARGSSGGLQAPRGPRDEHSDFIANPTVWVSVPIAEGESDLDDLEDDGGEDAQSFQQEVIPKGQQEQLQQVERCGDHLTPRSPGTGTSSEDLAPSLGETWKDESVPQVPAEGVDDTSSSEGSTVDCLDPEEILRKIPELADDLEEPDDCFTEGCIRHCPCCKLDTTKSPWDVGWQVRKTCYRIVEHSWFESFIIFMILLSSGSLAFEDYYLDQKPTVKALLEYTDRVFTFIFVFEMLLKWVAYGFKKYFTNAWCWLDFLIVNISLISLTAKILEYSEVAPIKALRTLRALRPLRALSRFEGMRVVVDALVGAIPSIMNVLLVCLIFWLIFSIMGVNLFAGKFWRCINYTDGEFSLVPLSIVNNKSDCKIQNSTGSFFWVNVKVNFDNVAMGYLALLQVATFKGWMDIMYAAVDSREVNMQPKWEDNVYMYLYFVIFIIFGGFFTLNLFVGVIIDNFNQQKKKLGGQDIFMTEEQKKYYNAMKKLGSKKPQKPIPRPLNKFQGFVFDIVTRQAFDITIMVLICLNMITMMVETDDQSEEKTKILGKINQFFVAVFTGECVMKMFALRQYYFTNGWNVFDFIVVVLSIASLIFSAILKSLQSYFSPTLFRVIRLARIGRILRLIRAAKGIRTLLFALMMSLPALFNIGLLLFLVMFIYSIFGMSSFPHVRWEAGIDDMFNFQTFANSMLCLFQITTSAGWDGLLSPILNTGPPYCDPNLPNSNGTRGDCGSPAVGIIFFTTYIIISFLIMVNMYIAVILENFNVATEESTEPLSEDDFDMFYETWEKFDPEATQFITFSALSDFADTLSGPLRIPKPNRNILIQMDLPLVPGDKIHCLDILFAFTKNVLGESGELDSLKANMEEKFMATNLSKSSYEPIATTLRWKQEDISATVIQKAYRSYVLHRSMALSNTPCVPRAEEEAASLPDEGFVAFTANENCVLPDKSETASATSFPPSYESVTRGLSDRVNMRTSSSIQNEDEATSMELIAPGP
Summary of the method: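 HEK293 cells stably expressing Nav1.8 were loaded with CC2-DMPE/DiSBAC2(3) FRET voltage dyes. Compounds were added 3 min before depolarization with EC80 veratridine plus scorpion venom. The F440-480/F565-625 ratio was read on FLIPR; IC50 came from four-parameter Hill fits.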

SMILES	OA MPE (%) ([1]; OA dose 30 mg/kg)	SNL MPE (%) [2] [%]	IC50 (human Nav1.7) [nM]	IC50 (human Nav1.8) [nM]	OA MPE (%) ([1]; OA dose 10 mg/kg)
O=C(CN1CCN(c2cccc3c2cnn3-c2ccccc2F)C1=O)N1CCCC1 [Example 1, 1-[1-(2-fluorophenyl)-1H-indazol-4-yl]-3-[2-oxo-2-(pyrrolidin-1-yl)ethyl]imidazolidin-2-one]	55	52			
NC(=O)CN1CCN(c2cccc3c2cnn3-c2ccccc2F)C1=O [Example 3, 2-{3-[1-(2-fluorophenyl)-1H-indazol-4-yl]-2-oxoimidazolidin-1-yl}acetamide]		30			
CC(C)OC(=O)N1CCN(c2cccc3c2cnn3-c2ccccc2F)C1=O [Example 4, isopropyl 3-[1-(2-fluorophenyl)-1H-indazol-4-yl]-2-oxoimidazolidine-1-carboxylate]		68	223	230	
CC(C)CC(=O)CN1CCN(c2cccc3c2cnn3-c2ccccc2F)C1=O [Example 8, 1-[1-(2-fluorophenyl)-1H-indazol-4-yl]-3-(4-methyl-2-oxopentyl)imidazolidin-2-one]	75	57			
O=C(CN1CCN(c2cccc3c2cnn3-c2ccccc2F)C1=O)N1CC[C@H](F)C1 [Example 10, 1-[1-(2-fluorophenyl)-1H-indazol-4-yl]-3-{2-[(3S)-3-fluoropyrrolidin-1-yl]-2-oxoethyl}imidazolidin-2-one]	91	0			
O=C1N(Cc2ccccn2)CCN1c1cccc2c1cnn2-c1ccccc1F [Example 12, 1-[1-(2-fluorophenyl)-1H-indazol-4-yl]-3-(pyridin-2-ylmethyl)imidazolidin-2-one]		25	1020	321	
O=C1N(Cc2cocn2)CCN1c1cccc2c1cnn2-c1ccccc1F [Example 26, 1-[1-(2-fluorophenyl)-1H-indazol-4-yl]-3-(1,3-oxazol-4-ylmethyl)imidazolidin-2-one]		54	382	517	
O=C1N(Cc2ncco2)CCN1c1cccc2c1cnn2-c1ccccc1F [Example 31, 1-[1-(2-fluorophenyl)-1H-indazol-4-yl]-3-(1,3-oxazol-2-ylmethyl)imidazolidin-2-one]		94			89
O=C(CN1CCN(c2cccc3c2cnn3-c2ccccc2F)C1=O)N1CCC[C@@H](F)C1 [Example 53, 1-[1-(2-fluorophenyl)-1H-indazol-4-yl]-3-{2-[(3R)-3-fluoropiperidin-1-yl]-2-oxoethyl}imidazolidin-2-one]	74	47			
